Here are results for two compounds from ChEMBL document CHEMBL4052759, “Discovery of DS79182026: A potent orally active hepcidin production inhibitor” (Bioorg Med Chem Lett, 2017).

Assay [1] deals with Homeodomain-interacting protein kinase 4 (Homo sapiens) (UniProt Q8NE63). In words: Inhibition of HIPK4 (unknown origin) at 0.49 uM relative to control.
In assay [2] the target is Tyrosine-protein kinase Blk (Homo sapiens) (UniProt P51451). Nature of the assay: Inhibition of BLK (unknown origin) at 0.49 uM relative to control.
In assay [3] the target is NUAK family SNF1-like kinase 1 (Homo sapiens) (UniProt O60285). Nature of the assay: Inhibition of NuaK1 (unknown origin) at 0.49 uM relative to control.
The target in assay [4] is Phosphorylase b kinase gamma catalytic chain, skeletal muscle/heart isoform (Homo sapiens) (UniProt Q16816). Nature of the assay: Inhibition of PhKg1 (unknown origin) at 0.49 uM relative to control.
Assay [5] deals with Fibroblast growth factor receptor 3 (Homo sapiens) (UniProt P22607). Nature of the assay: Inhibition of FGFR3 (unknown origin) at 0.49 uM relative to control.
For assay [6], the target named is Protein kinase C beta type (Homo sapiens) (UniProt P05771). Nature of the assay: Inhibition of PKC-beta2 (unknown origin) at 0.49 uM relative to control.
The target of assay [7] is Tyrosine-protein kinase Tec (Homo sapiens) (UniProt P42680). Nature of the assay: Inhibition of TEC (unknown origin) at 0.49 uM relative to control.
The target in assay [8] is Serine/threonine-protein kinase D3 (Homo sapiens) (UniProt O94806). Nature of the assay: Inhibition of PKD3 (unknown origin) at 0.49 uM relative to control.
For assay [9], the target named is Ephrin type-A receptor 2 (Homo sapiens) (UniProt P29317). Nature of the assay: Inhibition of EPHA2 (unknown origin) at 0.49 uM relative to control.
Assay [10] deals with AMP-activated protein kinase, AMPK (Homo sapiens) (UniProt P54646+O43741+P54619+Q9UGJ0+Q9Y478+Q13131+Q9UGI9). In words: Inhibition of AMPK (unknown origin) at 0.49 uM relative to control.
The target in assay [11] is Serine/threonine-protein kinase pim-1 (Homo sapiens) (UniProt P11309). Nature of the assay: Inhibition of PIM1 (unknown origin) at 0.49 uM relative to control.
The target in assay [12] is Tyrosine-protein kinase ITK/TSK (Homo sapiens) (UniProt Q08881). Nature of the assay: Inhibition of ITK (unknown origin) at 0.49 uM relative to control.
Assay [13] concerns the target Casein kinase I isoform epsilon (Homo sapiens) (UniProt P49674). In words: Inhibition of CK1-epsilon (unknown origin) at 0.49 uM relative to control.
In assay [14] the target is Tyrosine-protein kinase Yes (Homo sapiens) (UniProt P07947). In words: Inhibition of Yes (unknown origin) at 0.49 uM relative to control.
Assay [15] deals with T1, Aurora kinase A (Homo sapiens) (UniProt O14965).
T1 sequence (whole entry): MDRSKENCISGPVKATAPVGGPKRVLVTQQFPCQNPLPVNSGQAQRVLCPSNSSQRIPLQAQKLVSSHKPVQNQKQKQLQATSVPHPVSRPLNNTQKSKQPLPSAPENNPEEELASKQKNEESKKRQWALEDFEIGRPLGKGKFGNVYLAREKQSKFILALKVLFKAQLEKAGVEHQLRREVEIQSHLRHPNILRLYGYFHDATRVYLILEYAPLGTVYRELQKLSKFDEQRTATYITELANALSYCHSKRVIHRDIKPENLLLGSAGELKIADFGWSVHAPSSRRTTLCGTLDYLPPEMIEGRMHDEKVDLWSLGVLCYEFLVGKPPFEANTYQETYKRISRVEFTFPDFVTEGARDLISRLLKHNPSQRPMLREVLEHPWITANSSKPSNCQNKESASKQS
In words: Inhibition of AurA (unknown origin) at 0.49 uM relative to control.

In assay [16] the target is Testis-specific serine/threonine-protein kinase 2 (Homo sapiens) (UniProt Q96PF2). Nature of the assay: Inhibition of TSSK2 (unknown origin) at 0.49 uM relative to control.
The test system of assay [17] is Leucine-rich repeat serine/threonine-protein kinase 2 (Homo sapiens), Q5S007 [G2019S]. Nature of the assay: Inhibition of LRRK2 G2019S mutant (unknown origin) at 0.49 uM relative to control.
For assay [18], the target named is SRSF protein kinase 2 (Homo sapiens) (UniProt P78362). Nature of the assay: Inhibition of SRPK2 (unknown origin) at 0.49 uM relative to control.
Assay [19] concerns Platelet-derived growth factor receptor alpha (Homo sapiens), P16234 [V561D]. Nature of the assay: Inhibition of PDGFRA V561D mutant (unknown origin) at 0.45 uM relative to control.
Assay [20] concerns the target Ephrin type-B receptor 3 (Homo sapiens) (UniProt P54753). In words: Inhibition of EPHB3 (unknown origin) at 0.45 uM relative to control.
Assay [21] has as its system Fibroblast growth factor receptor 4 (Homo sapiens), P22455 [V550L]. In words: Inhibition of FGFR4 V550L mutant (unknown origin) at 0.45 uM relative to control.
The target of assay [22] is T1, Aurora kinase A (Homo sapiens). In words: Inhibition of AurA (unknown origin) at 0.45 uM relative to control.
Assay [23] concerns Platelet-derived growth factor receptor alpha (Homo sapiens), P16234 [D842V]. In words: Inhibition of PDGFRA D842V mutant (unknown origin) at 0.45 uM relative to control.
Assay [24] has as its target Rho-associated protein kinase 1 (Homo sapiens) (UniProt Q13464). Nature of the assay: Inhibition of ROCK1 (unknown origin) at 0.45 uM relative to control.
The target in assay [25] is Proto-oncogene tyrosine-protein kinase receptor Ret (Homo sapiens) (UniProt P07949). In words: Inhibition of RET (unknown origin) at 0.45 uM relative to control.
In assay [26] the target is Serine/threonine-protein kinase Sgk3 (Homo sapiens) (UniProt Q96BR1). Nature of the assay: Inhibition of SGK3 (unknown origin) at 0.45 uM relative to control.
Assay [27] addresses Ribosomal protein S6 kinase alpha-1 (Homo sapiens) (UniProt Q15418). Nature of the assay: Inhibition of RSK1 (unknown origin) at 0.45 uM relative to control.
Assay [28] concerns the target Rho-associated protein kinase 2 (Homo sapiens) (UniProt O75116). Nature of the assay: Inhibition of ROCK2 (unknown origin) at 0.45 uM relative to control.
The target in assay [29] is Mast/stem cell growth factor receptor Kit (Homo sapiens) (UniProt P10721). In words: Inhibition of KIT (unknown origin) at 0.45 uM relative to control.
Assay [30] deals with Fibroblast growth factor receptor 2 (Homo sapiens), P21802 [N549H]. Nature of the assay: Inhibition of FGFR2 N549H mutant (unknown origin) at 0.45 uM.
The target of assay [31] is Casein kinase I isoform epsilon (Homo sapiens) (UniProt P49674). Nature of the assay: Inhibition of CK1-epsilon (unknown origin) at 0.45 uM relative to control.
Assay [32] addresses Tyrosine-protein kinase Tec (Homo sapiens) (UniProt P42680). In words: Inhibition of TEC (unknown origin) at 0.45 uM relative to control.
In assay [33] the target is Aurora kinase C (Homo sapiens) (UniProt Q9UQB9). In words: Inhibition of AurC (unknown origin) at 0.45 uM relative to control.
The target of assay [34] is RAC-beta serine/threonine-protein kinase (Homo sapiens) (UniProt P31751). In words: Inhibition of AKT2 (unknown origin) at 0.45 uM relative to control.

In the case of `Cc1[nH]nc(C2CC2)c1-c1ccc2c(NC(=O)C3CC3)noc2c1`, the inhibition in assay [1] was 1.7%; in [2], 1%; in assay [3], 5.7%; in assay [4], 2.3%; in assay [5], -0.3%; in assay [6], 5.3%. Moreover, the inhibition was 3.7% in [7]; -4.3% in [8]; -0.3% in [9]; 2% in assay [10]; 9% in [11]; -1% in assay [12]. In addition, the inhibition was 1% in assay [13]; -8% in assay [14]; 5.7% in assay [15]; 2% in [16]; 5.3% in [17]; -2.3% in assay [18].

On to `Cc1n[nH]c(C)c1-c1ccc2c(NC(=O)c3ccc(N4CCN(C)CC4)cc3)n[nH]c2c1`, for which the inhibition in assay [19] was 30%; in assay [20], 2.7%; in assay [21], 2.7%; in assay [22] it was 7%; in assay [23], 79.3%; in assay [24] it was -2%. In addition, the inhibition in assay [25] turned out to be 59%; in assay [26], 3.3%; in assay [27] it was 27.3%; in [28], 0.7%; in [29] it was 24.7%; in assay [30], 40%. The inhibition is 2.7% in assay [31], 7% in [32], -1% in assay [33] and -2% in assay [34].

Broadly, the inhibition is the drop in the measured response relative to a control, in per cent.
